24 molecules from patent US11795177B2, “Substituted quinoline analogs as aldehyde dehydrogenase 1A1 (ALDH1A1) inhibitors” (THE UNITED STATES OF AMERICA, AS REPRESENTED BY THE …, priority 2017, dated 2023) can be followed below.

One experiment deals with T1, ALDH1A1 enzyme (Homo sapiens, UniProt P00352).
T1 sequence (P00352 1-501): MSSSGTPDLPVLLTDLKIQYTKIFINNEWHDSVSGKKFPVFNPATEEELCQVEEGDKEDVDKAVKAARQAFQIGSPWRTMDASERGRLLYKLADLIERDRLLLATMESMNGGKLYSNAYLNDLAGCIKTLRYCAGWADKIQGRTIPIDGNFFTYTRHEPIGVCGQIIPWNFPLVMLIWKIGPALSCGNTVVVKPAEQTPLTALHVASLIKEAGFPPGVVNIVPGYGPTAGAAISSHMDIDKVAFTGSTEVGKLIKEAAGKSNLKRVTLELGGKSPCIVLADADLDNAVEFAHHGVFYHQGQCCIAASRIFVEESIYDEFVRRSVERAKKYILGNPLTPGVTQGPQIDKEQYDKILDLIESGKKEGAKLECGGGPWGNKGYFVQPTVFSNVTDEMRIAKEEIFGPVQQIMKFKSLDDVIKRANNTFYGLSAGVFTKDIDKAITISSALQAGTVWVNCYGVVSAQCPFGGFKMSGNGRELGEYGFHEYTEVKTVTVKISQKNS
As to the kind of experiment: ALDH1A1 enzymatic assay (in vitro). It is filed as biochemical. Conditions: ALDH1A1 enzyme 20 nM, NAD+ 1 mM, propionaldehyde 80 μM; read-out: ALDH1A1 IC50. An outline of the steps: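 ALDH1A1 (20 nM final) in 100 mM HEPES pH 7.5, 0.01% Tween 20 was preincubated 15 min at RT with compound (968 pM–57.2 μM final), then started with 1 mM NAD+ and 80 μM propionaldehyde. NADH fluorescence (ex 340/em 450 nm) followed kinetically for 10 min; change normalized to no-inhibitor and no-enzyme controls for percent inhibition and curve fitting.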

The test system of a further experiment is MIA PaCa-2 cells. As to the kind of experiment: MIA PaCa2 cell-based assay (1,536-well high-content imaging ALDEFLUOR assay). More on the design: species or system human. Conditions: Homo sapiens, 0.5 h, ALDEFLUOR BAAA substrate 500 nM, 30 minutes. An outline of the steps: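 High-content ALDEFLUOR imaging readout: BAA-retaining cells in FITC channel scored against Hoechst-counted nuclei. Before imaging, MIA PaCa-2 cells seeded at 1,000 per well received final 500 nM BAAA and 0.5 nM Hoechst with compounds in 16-point series (1.4 nM to 47.8 μM), 30 min, 37° C.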

What is called IC50 is the concentration needed to halve the response being measured.

The structures appear in SMILES notation. Bounds are passed on as bounds.

For the molecule `CC(O)C1(c2ccccc2)CCN(c2c(C(=O)N3CCN(S(C)(=O)=O)CC3)cnc3ccc(F)cc23)CC1` (stereo not drawn) [Example 253, (6-fluoro-4-(4-(1-hydroxyethyl)-4-phenylpiperidin-1-yl)quinolin-3-yl)(4-(methylsulfonyl)piperazin-1-yl)methanone], the figures for the IC50 at ALDH1A1 enzyme and in the experiment with MIA PaCa-2 cells were under 500 nM and over 10000 nM, respectively.

Turning to `CS(=O)(=O)N1CCN(C(=O)c2cnc3ccc(F)cc3c2N2CCN(S(=O)(=O)c3ccccc3)CC2)CC1` [Example 254, (6-fluoro-4-(4-(phenylsulfonyl)piperazin-1-yl)quinolin-3-yl)(4-(methylsulfonyl)piperazin-1-yl)methanone], the IC50 at ALDH1A1 enzyme and in the experiment with MIA PaCa-2 cells was under 500 nM each time.

Take `O=C(c1cnc2ccc(F)cc2c1N1CCC(CO)(c2ccccc2)CC1)N1CCN(C(=O)C2CC2)CC1` [Example 255, (4-(cyclopropanecarbonyl)piperazin-1-yl)(6-fluoro-4-(4-(hydroxymethyl)-4-phenylpiperidin-1-yl)quinolin-3-yl)methanone]: the half-inhibitory concentration (IC50) at ALDH1A1 enzyme is 1000 to 10000 nM; in the experiment with MIA PaCa-2 cells, over 10000 nM.

For `CC(C)(O)C1(c2ccccc2)CCN(c2c(C(=O)N3CCN(S(C)(=O)=O)CC3)cnc3ccc(F)cc23)CC1` [Example 258, (6-fluoro-4-(4-(2-hydroxypropan-2-yl)-4-phenylpiperidin-1-yl)quinolin-3-yl)(4-(methylsulfonyl)piperazin-1-yl)methanone], the half-maximal inhibitory concentration (IC50) was 500 to 1000 nM at ALDH1A1 enzyme and 1000 to 10000 nM with MIA PaCa-2 cells.

In the case of `CC(C)(C#N)c1ccc(-c2c(C(=O)N3CCC(S(C)(=O)=O)CC3)cnc3ccc(F)cc23)cc1` [Example 259, 2-(4-(6-fluoro-3-(4-(methylsulfonyl)piperidine-1-carbonyl)quinolin-4-yl)phenyl)-2-methylpropanenitrile], the IC50 at ALDH1A1 enzyme and with MIA PaCa-2 cells was under 500 nM throughout.

Turning to `CN(C)S(=O)(=O)N1CCN(C(=O)c2cnc3ccc(F)cc3c2-c2ccc(C(C)(C)C#N)cc2)CC1` [Example 261, 4-(4-(4-(2-cyanopropan-2-yl)phenyl)-6-fluoroquinoline-3-carbonyl)-N,N-dimethylpiperazine-1-sulfonamide], the IC50 at ALDH1A1 enzyme and in the experiment on MIA PaCa-2 cells was under 500 nM throughout.

For `CN(C)C(=O)N1CCN(C(=O)c2cnc3ccc(F)cc3c2-c2ccc(C(C)(C)C#N)cc2)CC1` [Example 263, 4-(4-(4-(2-cyanopropan-2-yl)phenyl)-6-fluoroquinoline-3-carbonyl)-N,N-dimethylpiperazine-1-carboxamide], the IC50 at ALDH1A1 enzyme and in the experiment on MIA PaCa-2 cells was under 500 nM each time.

With `CS(=O)(=O)C1CCN(C(=O)c2cnc3ccc(F)cc3c2-c2ccc(C3(C#N)CC3)cc2)CC1` [Example 266, 1-(4-(6-fluoro-3-(4-(methylsulfonyl)piperidine-1-carbonyl)quinolin-4-yl)phenyl)cyclopropanecarbonitrile], the IC50 on ALDH1A1 enzyme and in the experiment with MIA PaCa-2 cells was under 500 nM throughout.

Take `N#CC1(c2ccc(Cl)cc2)CCN(c2c(C(=O)N3CCN(C(=O)C4CC4)CC3)cnc3ccc(F)cc23)CC1` [Example 267, 4-(4-chlorophenyl)-1-(3-(4-(cyclopropanecarbonyl)piperazine-1-carbonyl)-6-fluoroquinolin-4-yl)piperidine-4-carbonitrile]: the IC50 at ALDH1A1 enzyme is under 500 nM; in the experiment on MIA PaCa-2 cells, 1000 to 10000 nM.

Take `CC(=O)C1(c2ccccc2)CCN(c2c(C(=O)N3CCN(S(=O)(=O)N(C)C)CC3)cnc3ccc(F)cc23)CC1` [Example 268, 4-(4-(4-acetyl-4-phenylpiperidin-1-yl)-6-fluoroquinoline-3-carbonyl)-N,N-dimethylpiperazine-1-sulfonamide]: the IC50 on ALDH1A1 enzyme and in the experiment with MIA PaCa-2 cells was under 500 nM throughout.

Consider `CS(=O)(=O)C1CCN(C(=O)c2cnc3ccc(F)cc3c2N2CCC(C#N)(c3ccccc3)CC2)CC1` [Example 269, 1-(6-fluoro-3-(4-(methylsulfonyl)piperidine-1-carbonyl)quinolin-4-yl)-4-phenylpiperidine-4-carbonitrile], for which the IC50 on ALDH1A1 enzyme and with MIA PaCa-2 cells was under 500 nM each time.

Take `CC(=O)C1(c2ccccc2)CCN(c2c(C(=O)N3CCN(C(=O)N(C)C)CC3)cnc3ccc(F)cc23)CC1` [Example 271, 4-(4-(4-acetyl-4-phenylpiperidin-1-yl)-6-fluoroquinoline-3-carbonyl)-N,N-dimethylpiperazine-1-carboxamide]: the IC50 at ALDH1A1 enzyme and with MIA PaCa-2 cells was under 500 nM each time.

For the molecule `CC(=O)C1(c2ccccc2)CCN(c2c(C(=O)N3CCC(S(C)(=O)=O)CC3)cnc3ccc(F)cc23)CC1` [Example 273, 1-(1-(6-fluoro-3-(4-(methylsulfonyl)piperidine-1-carbonyl)quinolin-4-yl)-4-phenylpiperidin-4-yl)ethanone], the IC50 on ALDH1A1 enzyme and with MIA PaCa-2 cells was under 500 nM throughout.

As to `N#CC1(c2ccccc2F)CCN(c2c(C(=O)N3CCN(C(=O)C4CC4)CC3)cnc3ccc(F)cc23)CC1` [Example 276, 1-(3-(4-(cyclopropanecareonyl)piperazine-1-carbonyl)-6-fluoroquinolin-4-yl)-4-(2-fluorophenyl)piperidine-4-carbonitrile], the IC50 on ALDH1A1 enzyme and in the experiment with MIA PaCa-2 cells was under 500 nM throughout.

`Cc1ccc(C2(C#N)CCN(c3c(C(=O)N4CCN(S(C)(=O)=O)CC4)cnc4ccc(F)cc34)CC2)c(F)c1` [Example 277, 1-(6-fluoro-3-(4-(methylsulfonyl)piperazine-1-carbonyl)quinolin-4-yl)-4-(2-fluoro-4-methylphenyl)piperidine-4-carbonitrile]: the concentration for half-maximal inhibition (IC50) at ALDH1A1 enzyme and in the experiment on MIA PaCa-2 cells was under 500 nM each time.

Consider `N#CC1(c2ccc(F)cc2)CCN(c2c(C(=O)N3CCN(C(=O)C4CC4)CC3)cnc3ccc(F)cc23)CC1` [Example 278, 1-(3-(4-(cyclopropanecarbonyl)piperazine-1-carbonyl)-6-fluoroquinolin-4-yl)-4-(4-fluorophenyl)piperidine-4-carbonitrile], for which the IC50 at ALDH1A1 enzyme and in the experiment on MIA PaCa-2 cells was under 500 nM each time.

Take `CS(=O)(=O)N1CCN(C(=O)c2cnc3ccc(F)cc3c2-c2ccc(C3(CO)CC3)cc2)CC1` [Example 280, (6-fluoro-4-(4-(1-(hydroxymethyl)cyclopropyl)phenyl)quinolin-3-yl)(4-(methylsulfonyl)piperazin-1-yl)methanone]: the IC50 on ALDH1A1 enzyme and in the experiment on MIA PaCa-2 cells was under 500 nM throughout.

`CN(C)C(=O)N1CCN(C(=O)c2cnc3ccsc3c2-c2ccc(C3(C#N)CC3)cc2)CC1` [Example 281, 4-(7-(4-(1-cyanocyclopropyl)phenyl)thieno[3,2-b]pyridine-6-carbonyl)-N,N-dimethylpiperazine-1-carboxamide]: the IC50 at ALDH1A1 enzyme and in the experiment with MIA PaCa-2 cells was under 500 nM throughout.

For `CS(=O)(=O)C1CCN(C(=O)c2cnc3ccsc3c2-c2ccc(C3(C#N)CC3)cc2)CC1` [Example 283], the IC50 at ALDH1A1 enzyme and with MIA PaCa-2 cells was under 500 nM throughout.

Take `CN(C)S(=O)(=O)N1CCN(C(=O)c2cnc3ccsc3c2-c2ccc(C3(C#N)CC3)cc2)CC1` [Example 284, 4-(7-(4-(1-cyanocyclopropyl)phenyl)thieno[3,2-b]pyridine-6-carbonyl)-N,N-dimethylpiperazine-1-sulfonamide]: the IC50 on ALDH1A1 enzyme and in the experiment on MIA PaCa-2 cells was under 500 nM in each case.

As for `CN(C)S(=O)(=O)N1CCN(C(=O)c2cnc3ccsc3c2N2CCC(C#N)(c3ccccc3)CC2)CC1` [Example 287, 4-(7-(4-cyano-4-phenylpiperidin-1-yl)thieno[3,2-b]pyridine-6-carbonyl)-N,N-dimethylpiperazine-1-sulfonamide], the IC50 at ALDH1A1 enzyme and with MIA PaCa-2 cells was under 500 nM each time.

For `CN(C)C(=O)N1CCN(C(=O)c2cnc3ccsc3c2N2CCC(C#N)(c3ccccc3)CC2)CC1` [Example 289, 4-(7-(4-cyano-4-phenylpiperidin-1-yl)thieno[3,2-b]pyridine-6-carbonyl)-N,N-dimethylpiperazine-1-carboxamide], the IC50 at ALDH1A1 enzyme and in the experiment on MIA PaCa-2 cells was under 500 nM each time.

`Cc1ccc(C2(C#N)CCN(c3c(C(=O)N4CCN(C(=O)C5CC5)CC4)cnc4ccc(F)cc34)CC2)c(F)c1` [Example 290, 1-(3-(4-(cyclopropanecarbonyl)piperazine-1-carbonyl)-6-fluoroquinolin-4-yl)-4-(2-fluoro-4-methylphenyl)piperidine-4-carbonitrile]: the IC50 at ALDH1A1 enzyme and with MIA PaCa-2 cells was under 500 nM each time.

`O=C(c1cnc2ccc(F)cc2c1N1CCC(O)(c2ccccc2)CC1)N1CCN(C(=O)C2CC2)CC1` [Example 291, (4-(cyclopropanecarbonyl)piperazin-1-yl)(6-fluoro-4-(4-hydroxy-4-phenylpiperidin-1-yl)quinolin-3-yl)methanone]: the IC50 on ALDH1A1 enzyme was under 500 nM; in the experiment on MIA PaCa-2 cells, over 10000 nM.
